Results: ChEMBL document CHEMBL1123132, “1-Benzylcyclopropylamine and 1-(phenylcyclopropyl)methylamine: an inactivator and a substrate of monoamine oxidase” (J Med Chem, 1985)

How the values were obtained:
Type in all cases: protein assay
[1] = biological target: T1, Monoamine oxidase (Homo sapiens, UniProt P21397+P27338); experiment: Kinetic parameter (Kcat value) was determined
T1 sequence (P21397 whole entry): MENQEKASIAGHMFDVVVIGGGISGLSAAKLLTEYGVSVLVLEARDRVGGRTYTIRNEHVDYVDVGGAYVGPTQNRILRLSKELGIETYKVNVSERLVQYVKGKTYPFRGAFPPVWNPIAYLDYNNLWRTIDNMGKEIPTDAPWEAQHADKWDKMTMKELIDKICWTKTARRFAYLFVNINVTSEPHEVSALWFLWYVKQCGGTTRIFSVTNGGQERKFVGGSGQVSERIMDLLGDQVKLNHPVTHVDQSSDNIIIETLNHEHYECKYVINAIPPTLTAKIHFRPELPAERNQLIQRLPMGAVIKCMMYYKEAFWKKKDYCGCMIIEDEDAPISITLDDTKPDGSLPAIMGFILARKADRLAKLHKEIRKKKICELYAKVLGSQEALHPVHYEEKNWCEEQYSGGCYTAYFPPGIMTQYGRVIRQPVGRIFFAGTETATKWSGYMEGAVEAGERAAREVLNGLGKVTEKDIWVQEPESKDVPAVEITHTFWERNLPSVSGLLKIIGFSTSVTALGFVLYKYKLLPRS
T1 sequence (P27338 whole entry): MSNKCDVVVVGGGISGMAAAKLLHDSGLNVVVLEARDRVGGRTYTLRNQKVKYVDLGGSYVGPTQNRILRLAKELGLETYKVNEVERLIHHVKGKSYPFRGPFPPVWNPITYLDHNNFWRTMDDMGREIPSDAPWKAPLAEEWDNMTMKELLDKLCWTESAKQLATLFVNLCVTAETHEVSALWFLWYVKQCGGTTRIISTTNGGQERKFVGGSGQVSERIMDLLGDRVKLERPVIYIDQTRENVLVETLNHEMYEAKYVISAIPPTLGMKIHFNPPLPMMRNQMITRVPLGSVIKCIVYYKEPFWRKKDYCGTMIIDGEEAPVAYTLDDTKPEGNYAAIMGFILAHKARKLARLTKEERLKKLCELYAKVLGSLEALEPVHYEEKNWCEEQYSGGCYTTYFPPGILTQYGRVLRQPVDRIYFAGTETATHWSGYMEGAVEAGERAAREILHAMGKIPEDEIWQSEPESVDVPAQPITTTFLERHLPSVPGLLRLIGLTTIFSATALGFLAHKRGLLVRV

[2] = biological target: T1, Monoamine oxidase; experiment: Kinetic parameter (Km value) was determined
[3] = biological target: T1, Monoamine oxidase; experiment: Evaluated for (Ki value) in competition with oxidation of benzylamine.
[4] = biological target: T1, Monoamine oxidase; experiment: Evaluated for (Ki value) inactivation of Monoamine oxidase at saturation.

k cat [1] [s⁻¹] | Km [2] [µM] | Ki [3] [µM] | Ki [4] [µM] | Compound
1.52 | 40 | 50 | – | NCC1(c2ccccc2)CC1
– | – | 51 | 480 | NC1(Cc2ccccc2)CC1
